The results in this text go back to US8124637B2, “Anthra [1, 2-d]imidazole-6,11-dione derivatives, preparation method and application thereof” (National Defense Medical Center, priority 2010, dated 2012).

Molecules are shown by their SMILES.

The subject of series [1] is hTERT promoter (PhTERT) expression. Put plainly: SEAP assay (PhTERT-SEAP reporter, H1299). The note with it: Homo sapiens, NCI-H1299, PhTERT-SEAP (H1299); for activity at 1 µM: read-out: Relative SEAP activity (%); for activity at 10 µM / activity at 100 µM: read-out: Relative SEAP activity (%) (converted). In kind it is cell-based, human. As for the experimental part:
H1299 were grown in RPMI 1640 media supplemented with 10% fetal bovine serum, 100 units/mL penicillin and […] streptomycin in a humidified atmosphere with 5% CO2 at 37° C. Culture media were changed every three days. To establish stable cell lines that the expression of hTERT could be monitored by a reporter system, a about 3.3 kbp DNA fragment ranging from −3338 to +1 bp of the hTERT gene (hTERT promoter, PhTERT) was subcloned upstream to a secreted alkaline phosphatase gene (SEAP) and transfected into H1299 bp electroporation. The stable clones were selected using G418. The stable clones derived from H1299 were cultured using conditions that are similar to their parental cells.
Secreted alkaline phosphatase was used as the reporter system to monitor the transcriptional activity of hTERT. Here, about 10^4 cells each were grown in 96-well plates and incubated at 37° C. for 24 hours and changed with fresh media. Varying amounts of drugs were added and cells were incubated for another 24 hours. Culture media were collected and heated at 65° C. for 10 min to inactivate heat-labile phosphatases. An equal amount of SEAP buffer (2 M diethanolamine, 1 mM MgCl2, and 20 mM L-homoarginine) was added to the media and p-nitrophenyl phosphate was added to a final concentration of 12 mM. Absorptions at 405 nm were taken, and the rate of absorption increase is determined (the increasing rate of absorbance at 405 nm was used to represent the activity of SEAP).

The nature of series [2]: MTT assay (relative cell survival), H1299. The note with it: human, H1299 non-small cell lung cancer cells (PhTERT-SEAP), Relative MTT viability (%). In general terms: Formazan colour is commonly taken as a measure of viable cells.
Description: Further, cells were subjected to MTT assay to compare the relative toxicity or effect of each compound on cell proliferation and activity.
The above-described cells are cultured in a 96-well plate, to which was added with 25 μl MTT solution, and cultured in a 37° C. carbon dioxide incubator for 4 hours. Then, 100 μl Lysis buffer is added and incubated in a 37° C. carbon dioxide incubator overnight. An ELISA reader (Bio-Rad Model 450) is used to read optical density (O.D.) at 550 nm.
After being subjected to different compound treatments for 72 hours, cells were treated with a fixed amount of MTT solution for 28 hours. Then, DMSO was used to dissolve back formazan, an O. D. value was detected at wavelength in the range of 550/670 nm, and calculated accordingly the cell survival rate (as shown in Table 1).

In the case of `CN(C)Cc1nc2ccc3c(c2[nH]1)C(=O)c1ccccc1C3=O` [CL02, 2-((dimethylamino)methyl)-1H-anthra[1,2-d]imidazole-6,11-dione], in series [1], the activity at 1 µM is 83.6 ± 8.52%, the activity at 10 µM was under 50% and the activity at 100 µM is -2.26%. In addition, in series [2], the viability (as a rule, a read-out of living cells in per cent, often relative to untreated cells) at 72 h, 1 µM amounted to 98.9 ± 6.37% and the viability at 72 h, 10 µM is over 50%.
The matching figures for `CCN(C)Cc1nc2ccc3c(c2[nH]1)C(=O)c1ccccc1C3=O` [CL03, 2-((ethylmethylamino)methyl)-1H-anthra[1,2-d]imidazole-6,11-dione]: 97.1 ± 12%, under 50%, -2.69%, 98.9 ± 3.64% and over 50%.
On to `CCCN(C)Cc1nc2ccc3c(c2[nH]1)C(=O)c1ccccc1C3=O` [CL05, 2-((methylpropylamino)methyl)-1H-anthra[1,2-d]imidazole-6,11-dione], for which, in series [1], the activity at 1 µM came to 96 ± 6.58%, the activity at 10 µM is under 50% and the activity at 100 µM was -0.38%. Further, in series [2], the viability at 72 h, 1 µM is 93.5 ± 7.25%.
For the compound `CN(Cc1nc2ccc3c(c2[nH]1)C(=O)c1ccccc1C3=O)CC1OCCO1` [CL08, 2-(((1,3-dioxolan-2-yl)-N-methylmethanamino)methyl)-1H-anthra[1,2-d]imidazole-6,11-dione], in series [1], the activity at 1 µM is 90.4 ± 2.87%, the activity at 10 µM is 68.7% and the activity at 100 µM was 6.78%. Also, in series [2], the viability at 72 h, 1 µM was determined as 104 ± 3.91%; the viability at 72 h, 10 µM was 89.8%; the viability at 72 h, 100 µM was 28.3%.
`COc1cccc(CN(C)Cc2nc3ccc4c(c3[nH]2)C(=O)c2ccccc2C4=O)c1` [CL09, 2-((3-methoxy-N-methybenzylamino)methyl)-1H-anthra[1,2-d]imidazole-6,11-dione]: in series [1], the activity at 1 µM is 105 ± 3.38%, the activity at 10 µM was 78.1% and the activity at 100 µM is -3.01%. Also, in series [2], the viability at 72 h, 1 µM worked out at 96.6 ± 5.02%; the viability at 72 h, 10 µM stood at 97.6%; the viability at 72 h, 100 µM was 9.24%.
With `O=C1c2ccccc2C(=O)c2c1ccc1nc(CN(Cc3ccccn3)Cc3ccccn3)[nH]c21` [CL10, 2-((di-(2-picolyl)amino)methyl)-1H-anthra[1,2-d]imidazole-6,11-dione], in series [1], the activity at 1 µM stood at 86.5 ± 3.63%, the activity at 10 µM was -6.44% and the activity at 100 µM is -7.58%. For the same compound, the viability at 72 h, 1 µM in series [2] came out at 101 ± 5.98%.
With `O=C1c2ccccc2C(=O)c2c1ccc1nc(CNCc3ccccc3C(F)(F)F)[nH]c21` [CL12, 2-((2-(trifluoromethyl)benzylamino)methyl)-1H-anthra[1,2-d]imidazole-6,11-dione], in series [1], the activity at 1 µM came to 87.3 ± 3.26%, the activity at 10 µM was 81.2% and the activity at 100 µM is -1.71%. Also, in series [2], the viability at 72 h, 1 µM stood at 98.5 ± 5.49%; the viability at 72 h, 10 µM is 96.3%; the viability at 72 h, 100 µM is 6.32%.
With `O=C1c2ccccc2C(=O)c2c1ccc1nc(CNCc3ccc(C(F)(F)F)cc3)[nH]c21` [CL14, 2-((4-(trifluoromethyl)benzylamino)methyl)-1H-anthra[1,2-d]imidazole-6,11-dione], in series [1], the activity at 1 µM stood at 51.6 ± 0.68%, the activity at 10 µM was 78.5% and the activity at 100 µM is 2.56%. Besides, in series [2], the viability at 72 h, 1 µM was 74.3 ± 4.04% and the viability at 72 h, 10 µM was 10.6%.
Take `O=C1c2ccccc2C(=O)c2c1ccc1nc(CNCc3ccc4c(c3)OCO4)[nH]c21` [CL15, 2-((piperonylamino)methyl)-1H-anthra[1,2-d]imidazole-6,11-dione]: in series [1], the activity at 1 µM is 74.5 ± 14.3%, the activity at 10 µM was 74.6 ± 17.4% and the activity at 100 µM was 1.32%. Besides, in series [2], the viability at 72 h, 1 µM was determined as 109 ± 2.02%; the viability at 72 h, 10 µM is 103%; the viability at 72 h, 100 µM was 14.2%.
In the case of `O=C1c2ccccc2C(=O)c2c1ccc1nc(CN3CCCCCC3)[nH]c21` [CL18, 2-((azepan-1-yl)methyl)-1H-anthra[1,2-d]imidazole-6,11-dione], in series [1], the activity at 1 µM is 107 ± 5.16%, the activity at 10 µM is 66.5% and the activity at 100 µM was 3.79%. Moreover, in series [2], the viability at 72 h, 1 µM came to 104 ± 6.82% and the viability at 72 h, 10 µM was 85.1%.
In the case of `O=C1c2ccccc2C(=O)c2c1ccc1nc(CN3CCC4(CC3)OCCO4)[nH]c21` [CL19, 2-((1,4-dioxa-8-azaspiro[4.5]decane-8-yl)methyl)-1H-anthra[1,2-d]imidazole-6,11-dione], in series [1], the activity at 1 µM was 97 ± 1.84%, the activity at 10 µM is 95.5% and the activity at 100 µM is 14.1%. In series [2], the viability at 72 h, 1 µM was found to be 103 ± 2.09%; the viability at 72 h, 10 µM is 79.2%; the viability at 72 h, 100 µM was 14.8%.
`O=C1c2ccccc2C(=O)c2c1ccc1nc(CN3CCOCC3)[nH]c21` [CL21, 2-(morpholinomethyl)-1H-anthra[1,2-d]imidazole-6,11-dione]: in series [1], the activity at 1 µM stood at 102 ± 4.81%, the activity at 10 µM is 97.3% and the activity at 100 µM is 25.6%. Moreover, in series [2], the viability at 72 h, 1 µM was 89.8 ± 2.58%; the viability at 72 h, 10 µM was 70.8%; the viability at 72 h, 100 µM is 13.4%.
With `O=C1c2ccccc2C(=O)c2c1ccc1nc(CN3CCSCC3)[nH]c21` [CL22, 2-(thiomorpholinomethyl)-1H-anthra[1,2-d]imidazole-6,11-dione], in series [1], the activity at 1 µM was found to be 115 ± 2.45%, the activity at 10 µM is 76.7% and the activity at 100 µM is 4.62%. For the same compound, in series [2], the viability at 72 h, 1 µM is 91.8 ± 3.61%; the viability at 72 h, 10 µM is 77.5%; the viability at 72 h, 100 µM is 0.93%.
For `O=C1c2ccccc2C(=O)c2c1ccc1nc(CN3CCSC3)[nH]c21` [CL23, 2-((thiazolidin-3-yl)methyl)-1H-anthra[1,2-d]imidazole-6,11-dione], in series [1], the activity at 1 µM amounted to 106 ± 3.01%, the activity at 10 µM is 85.6% and the activity at 100 µM was 11.9%. Besides, in series [2], the viability at 72 h, 1 µM is 89.3 ± 4.79%; the viability at 72 h, 10 µM was 75.5%; the viability at 72 h, 100 µM was 5.18%.
With `C=CCN1CCN(Cc2nc3ccc4c(c3[nH]2)C(=O)c2ccccc2C4=O)CC1` [CL26, 2-((4-allylpiperazin-1-yl)methyl)-1H-anthra[1,2-d]imidazole-6,11-dione], in series [1], the activity at 1 µM was 87.2 ± 1.82%, the activity at 10 µM is 16.7% and the activity at 100 µM was -6.77%. Besides, in series [2], the viability at 72 h, 1 µM was 86 ± 3.37% and the viability at 72 h, 10 µM was 44.8%.
As to `O=C1c2ccccc2C(=O)c2c1ccc1nc(CN3CCN(c4ncccn4)CC3)[nH]c21` [CL29, 2-((4-(pyrimidin-2-yl)piperazin-1-yl)methyl)-1H-anthra[1,2-d]imidazole-6,11-dione], in series [1], the activity at 1 µM amounted to 111 ± 3.55%, the activity at 10 µM is 92.2% and the activity at 100 µM is 19.4%. In series [2], the viability at 72 h, 1 µM was 85.5 ± 3.17%; the viability at 72 h, 10 µM was 73.7%; the viability at 72 h, 100 µM is 28.2%.
